This note sets out measurements from patent US7495027B2, “3-aryl-4-hydroxyfuranone compounds and the human and animal health use thereof” (Wyeth, priority 2003, dated 2009).

For this experiment, the system named is C. elegans. The experiment is described as follows: Efficacy against nematodes (C. elegans motility rating). Also noted: key: 0: no effect; 7: reduced movement in 24 h; 8: dead in 24 h; 9: dead in 4 h. To be noted: observations at 4 h and 24 h postimmersion. As for the experimental part:
Evaluation of the Efficacy of a 3-Aryl-4-Hydroxyfuranone Against Nematodes
In this evaluation, cultures of C. elegans are maintained on E. coli lawns on Nematode Growth Agar at 20° C. New cultures are established twice a week. Nematodes for testing are rinsed from plates using M9 Buffer. […] One μL of this solution is added to each well of a 96 well plate. A mixture of C. elegans in M9 Buffer (100 μL) is added to each well, such that approximately 50 worms of mixed stages (L1, L2, L3, L4 and adults) are present in each well at a final concentration of 100 ppm, 150 ppm or […] of test compound. Concentration of test compound may be varied by gradient dilution of the stock DMSO solution. Observations are made under a dissecting microscope at 4 h and 24 h postimmersion. A rating is based on the motility of the larvae and adults, using the rating system shown below.

The compound `O=C1OC(=Cc2ccc(OCC3CC3)cc2)C(O)=C1c1ccc(Cl)cc1` (mixture of isomers) returned a Rating (dose 100 ppm) of 7.

For the setting “dose 100 ppm”, `Cc1c(C=C2OC(=O)C(c3ccc(OC(F)(F)F)cc3)=C2O)cnn1-c1ccc(F)cc1` (mixture of isomers) returned a Rating of 0.

`COc1ccc(-n2ncc(C=C3OC(=O)C(c4ccc(OC(F)(F)F)cc4)=C3O)c2C)cc1` (mixture of isomers) displayed a Rating (dose 100 ppm) of 0.

Under “dose 100 ppm”, `Cc1c(C=C2OC(=O)C(c3ccc(OC(F)(F)F)cc3)=C2O)cnn1-c1ccccc1` (mixture of isomers) showed a Rating of 0.

Under “dose 100 ppm”, `O=C1OC(=Cc2cccnc2Cl)C(O)=C1c1ccc(OC(F)(F)F)cc1` (mixture of isomers) registered a Rating of 9.

With `O=C1OC(=Cc2c[nH]c(-c3ccccc3)n2)C(O)=C1c1ccc(OC(F)(F)F)cc1` (mixture of isomers), for the setting “dose 100 ppm”, the Rating is given as 0.

Compound `Cc1cc(C=C2OC(=O)C(c3ccc(OC(F)(F)F)cc3)=C2O)n(C)n1` (mixture of isomers) registered a Rating (dose 100 ppm) of 0.

`O=C1OC(=Cc2ccc(-n3cncn3)cc2)C(O)=C1c1ccc(OC(F)(F)F)cc1` (mixture of isomers) came in with a Rating (dose 100 ppm) of 9.

For the setting “dose 100 ppm”, `CN1CCN(c2ccc(C=C3OC(=O)C(c4ccc(OC(F)(F)F)cc4)=C3O)cc2)CC1` (mixture of isomers) had a Rating of 0.

The compound `N#Cc1ccc(-c2ccc(C=C3OC(=O)C(c4ccc(OC(F)(F)F)cc4)=C3O)cc2)cc1` (mixture of isomers) had a Rating (dose 100 ppm) of 9.

`O=C1OC(=Cc2ccc(-c3ccc(Cl)cc3)cc2)C(O)=C1c1ccc(OC(F)(F)F)cc1` (mixture of isomers) returned a Rating (dose 100 ppm) of 9.

On to `O=C1OC(=Cc2ccc(-n3cccc3)cc2)C(O)=C1c1ccc(OC(F)(F)F)cc1` (mixture of isomers), for which the Rating (dose 100 ppm) is listed as 9.

Turning to `O=C1OC(=Cc2ccc(-c3cccs3)cc2)C(O)=C1c1ccc(OC(F)(F)F)cc1` (mixture of isomers), where the note is “dose 100 ppm”, the Rating came out at 9.

Turning to `Cn1cc(Cl)c(C=C2OC(=O)C(c3ccc(OC(F)(F)F)cc3)=C2O)n1` (mixture of isomers), the Rating (dose 100 ppm) amounted to 0.

`O=C1OC(=Cc2ccc(-c3ccc(F)c(C(F)(F)F)c3)o2)C(O)=C1c1ccc(OC(F)(F)F)cc1` (mixture of isomers) displayed a Rating (dose 100 ppm) of 9.

For the setting “dose 100 ppm”, `O=C1OC(=Cc2ccc(N3CCOCC3)nc2)C(O)=C1c1ccc(OC(F)(F)F)cc1` (mixture of isomers) came in with a Rating of 0.

On to `O=C1OC(=Cc2ccc(-c3ccccn3)s2)C(O)=C1c1ccc(OC(F)(F)F)cc1` (mixture of isomers), for which the Rating (dose 100 ppm) stood at 9.

On to `O=C1OC(=Cc2ccc(Br)o2)C(O)=C1c1ccc(OC(F)(F)F)cc1` (mixture of isomers), for which the Rating (dose 100 ppm) was 9.

`Cc1nn(C)c(Cl)c1C=C1OC(=O)C(c2ccc(OC(F)(F)F)cc2)=C1O` (mixture of isomers): the Rating (dose 100 ppm) worked out at 0.

On to `Cc1ccccc1-n1ncc(C=C2OC(=O)C(c3ccc(OC(F)(F)F)cc3)=C2O)c1C` (mixture of isomers), for which the Rating (dose 100 ppm) was found to be 0.

On to `O=C1OC(=Cc2ccc(Oc3ccccc3)nc2)C(O)=C1c1ccc(OC(F)(F)F)cc1` (mixture of isomers), for which, for the setting “dose 100 ppm”, the Rating was found to be 9.

`O=C1OC(=Cc2ccc(C(F)(F)F)cc2)C(O)=C1c1ccc(C(F)(F)F)cc1` (mixture of isomers) [R=H; R1=4-CF3—C6H4**; R2=4-CF3—C6H4] yielded a Rating (dose 100 ppm) of 9.

Take `N#Cc1ccc(C=C2OC(=O)C(c3ccc(C(F)(F)F)cc3)=C2O)cc1` (mixture of isomers) [R=H; R1=4-CF3—C6H4**; R2=4-CN—C6H4]: where the note is “dose 100 ppm”, the Rating is 9.

The compound `O=C1OC(=Cc2ccc(Cl)cc2)C(O)=C1c1ccc(C(F)(F)F)cc1` (mixture of isomers) [R=H; R1=4-CF3—C6H4**; R2=4-Cl—C6H4] showed a Rating (dose 100 ppm) of 9.

`N#Cc1ccc(C2=C(O)C(=Cc3ccc(Cl)cc3Cl)OC2=O)cc1` (mixture of isomers) [R=H; R1=4-CN—C6H4**; R2=2,4-diCl—C6H4] showed a Rating (dose 100 ppm) of 9.

Take `N#Cc1ccc(C2=C(O)C(=Cc3ccc(Cl)c(Cl)c3)OC2=O)cc1` (mixture of isomers) [R=H; R1=4-CN—C6H4**; R2=3,4-diCl—C6H4]: the Rating (dose 100 ppm) was found to be 9.

Where the note is “dose 100 ppm”, `N#Cc1ccc(C2=C(O)C(=Cc3ccc(C(F)(F)F)cc3)OC2=O)cc1` (mixture of isomers) [R=H; R1=4-CN—C6H4**; R2=4-CF3-C6H4] showed a Rating of 9.

Regarding `O=C1OC(=Cc2ccccc2C(F)(F)F)C(O)=C1c1ccc(Cl)cc1` (mixture of isomers) [R=H; R1=4-Cl—C6H4**; R2=2-CF3—C6H4], the Rating (dose 100 ppm) stood at 9.

`O=C1OC(=Cc2cccc(Cl)c2)C(O)=C1c1ccc(Cl)cc1` (mixture of isomers) [R=H; R1=4-Cl—C6H4**; R2=3-Cl—C6H4] showed a Rating (dose 150 ppm) of 9.

The compound `O=C1OC(=Cc2ccc(C(F)(F)F)c(F)c2)C(O)=C1c1ccc(Cl)cc1` (mixture of isomers) [R=H; R1=4-Cl—C6H4**; R2=3-F-4-CF3—C6H4] yielded a Rating (dose 100 ppm) of 9.

Compound `O=C1OC(=Cc2ccc(C(F)(F)F)cc2)C(O)=C1c1ccc(Cl)cc1` (mixture of isomers) [R=H; R1=4-Cl—C6H4**; R2=4-CF3—C6H4] registered a Rating (dose 100 ppm) of 9.

With `N#Cc1ccc(C=C2OC(=O)C(c3ccc(Cl)cc3)=C2O)cc1` (mixture of isomers) [R=H; R1=4-Cl—C6H4**; R2=4-CN—C6H4], where the note is “dose 150 ppm”, the Rating is 9.

`O=C1OC(=Cc2ccc(SC(F)(F)F)cc2)C(O)=C1c1ccc(Cl)cc1` (mixture of isomers) [R=H; R1=4-Cl—C6H4**; R2=4-SCF3—C6H4] registered a Rating (dose 100 ppm) of 9.

The compound `O=C1OC(=Cc2ccc(C(F)(F)F)cc2F)C(O)=C1c1ccc(OC(F)(F)F)cc1` (mixture of isomers) [R=H; R1=4-OCF3—C6H4**; R2=2-F-4-CF3—C6H3] showed a Rating (dose 100 ppm) of 9.

For `O=C1OC(=Cc2cc(F)cc(C(F)(F)F)c2)C(O)=C1c1ccc(OC(F)(F)F)cc1` (mixture of isomers) [R=H; R1=4-OCF3—C6H4**; R2=3-F-5-CF3—C6H3], under “dose 100 ppm”, the Rating turned out to be 9.

As for `O=C1OC(=Cc2ccncc2)C(O)=C1c1ccc(OC(F)(F)F)cc1` (mixture of isomers) [R=H; R1=4-OCF3—C6H4**; R2=pyridine-4-yl], the Rating (dose 100 ppm) is 0.

`COC1=C(c2cccc(C(F)(F)F)c2)C(=O)O/C1=C\c1cccc(C(F)(F)F)c1` [R=CH3; R1=3-CF3—C6H4; R2=3-CF3—C6H4] gave a Rating (dose 150 ppm) of 0.

Under “dose 150 ppm”, `COC1=C(c2cccc(C(F)(F)F)c2)C(=O)O/C1=C\c1ccccc1` [R=CH3; R1=3-CF3—C6H4; R2=C6H5] returned a Rating of 0.

On to `COC1=C(c2ccc(Cl)cc2)C(=O)O/C1=C\c1ccccc1` [R=CH3; R1=4-Cl—C6H4; R2=C6H5], for which, where the note is “dose 150 ppm”, the Rating came to 0.

`COC1=C(c2ccc(OC)cc2)C(=O)O/C1=C\c1cccc(C(F)(F)F)c1` [R=CH3; R1=4-OCH3—C6H4; R2=3-CF3—C6H4] had a Rating (dose 150 ppm) of 0.

Regarding `COC1=C(c2ccc(OC)cc2)C(=O)O/C1=C\c1ccccc1` [R=CH3; R1=4-OCH3—C6H4; R2=C6H5], where the note is “dose 150 ppm”, the Rating came out at 0.

`COC1=C(c2ccccc2)C(=O)O/C1=C\c1cccc(C(F)(F)F)c1` [R=CH3; R1=C6H5; R2=3-CF3—C6H4]: the Rating (dose 150 ppm) is on record as 0.

In turn, `O=C1O/C(=C\c2cccc3ccccc23)C(O)=C1c1cccc2ccccc12` [R=H; R1=1-naphthyl; R2=1-naphthyl] returned a Rating (dose 150 ppm) of 0.
